“And” between values parts separate entries of the source, which are not always exact repeats. Equal values may be shown once. “Also recorded” adds a separate entry of the source.
What was measured:
[1] = tested on: polysubstrate monooxygenase enzyme system of the liver; assay: Induction of the polysubstrate monooxygenase enzyme system of the liver
[2] = Quinoxaline-2-carboxylic acid (Carbadox metabolite) residue in pig muscle (ham, chop), liver and kidney after flumecinol treatment; type: in vivo, pigs; set-up: key to amount of quinoxaline-2-carboxylic acid / quinoxaline-2-carboxylic acid content of the muscle tissue / quinoxaline-2-carboxylic acid content of the liver / quinoxaline-2-carboxylic acid content of the kidney: .0.: no detectable amount; details: for quinoxaline-2-carboxylic acid content of the kidney / quinoxaline-2-carboxylic acid content of the liver / quinoxaline-2-carboxylic acid content of the muscle tissue: average, n = 3; for amount of quinoxaline-2-carboxylic acid: individual animal
Experimental: (§1) Tests were carried out at a large-scale pig farm, where 25 mg/kg of body weight of Carbadox admixed with the fodder of the pigs were administered to pigs having a live weight of 40 kg. From a population fed with this fodder 27 animals, each weighing exactly 40 kg, were selected, by weighing them separately. The selected animals were railed off in a place suitable for further tests. From this time on (zero time) the animals were given the same fodder as before, except Carbadox.
(§2) The 27 animals were divided into three groups as follows:
(§3) Group I: 12 animals (ser. Nos. from 1 to 12) slaughtering: three animals each when starting the experiment (0 time) and on the 1st, 5th and 15th days (positive control group) Group II: 9 amimals (ser. Nos. from 13 to 21) treatment: a single 40 mg/kg of body weight dose of flumecinol at zero time. slaughtering: three animals each on the 1st, 5th and 15th days (group treated with a single dose of flumecinol) Group III: 6 animals (ser. Nos. 22 to 27) treatment: 40 mg/kg of body weight of flumecinol for three days, at zero time and on the 1st and 2nd day slaughtering: three animals each on the 5th and 15th days (group treated with flumecinol three times) Flumecinol is available as a micropellet containing 19.02% of active ingredient. From this and a 1% starch hydrolysate a suspension is prepared, containing 40 mg of flumecinol per 1 ml (dose used for one kg of body weight). The active compound was administered 8 o'clock in the morning, without previous fasting, through a stomach tube, in order to ensure exact conditions for the experiments. The animals were killed and samples were taken from 8 to 11 o'clock in the morning, whereupon the samples were transported into the analytical laboratory within one hour, under cooling.
(§4) Quinoxaline-2-carboxylic acid (a metabolite of Carbadox) was determined in the chop, liver and kidney tissues of three animals from each group. Each muscle and liver sample was subjected to organoleptic examination also (boiling test).
The quantity of quinoxaline-2-carboxylic acid was determined essentially following the method described in the USDA Chemistry Laboratory Guidebook (5007 Determination of Carbadox):
Following the alkaline hydrolysis of the muscle, liver and kidney samples, the hydrolysates were strongly acidified and the quinoxaline-2-carboxylic acid was extracted with ethyl acetate. The pH of the ethyl acetate extract was adjusted to 6 with a citric acid buffer, whereupon the mixture was extracted with benzene. In the next step the acid was esterified with a mixture of n-propanol and sulfuric acid, to yield propyl quinoxaline-2-carboxylate. The quantity of the latter compound was determined (after purification by thin layer chromatography) by gas chromatography. This cumbersome test procedure was always performed together with a […] control sample to which a known amount (0.2 μg-1.0 μg) of quinoxaline-2-carboxylic acid (standard) was added. The percentage of the active ingredient recovered from this sample was taken into account when calculating the residual active substance amount. In this way the error of the process was eliminated.
The test results, if not otherwise indicated, are given in μg/kg.
The quantity of quinoxaline-2-carboxylic acid in the above-specified slaughtering times is shownn in Table 1. The tests were carried out on three animals and Table 1 contains the results obtained on the individual animals. The results were also statistically evaluated for the various sorts of tissues, although in this specific case this was not really necessary, since according to the valid prescriptions the products of animal origin should not contain Carbadox at all, i.e. the limit is zero. Therefore, we considered it more important to determine when the animal tissues become entirely Carbadox-free, than to observe the differences among the tissues of the various groups of animals in the time when they were killed.

[3] = Organoleptic examination (boiling test) of muscle and liver tissues of pigs treated with Carbadox and flumecinol; type: in vivo; set-up: key to visual observation / organoleptic (odor) score: 1: negative; 2: slight strange (indeterminable) odor; 3: some strange (slight medicamentlike) odor; 4: definite strange (more expressed medicament) odor; details: for visual observation / organoleptic (odor) score: individual animal
Experimental: as §1, §2, §3, §4

[4] = one treatment 40 mg/kg, 1st day
[5] = one treatment 40 mg/kg, 1st day, chop
[6] = one treatment 40 mg/kg, 1st day, ham
[7] = one treatment 40 mg/kg, 5th day
[8] = one treatment 40 mg/kg, 5th day, chop
[9] = one treatment 40 mg/kg, 5th day, ham
[10] = one treatment 40 mg/kg, 15th day
[11] = one treatment 40 mg/kg, 15th day, chop
[12] = one treatment 40 mg/kg, 15th day, ham
[13] = one treatment 40 mg/kg, 1st day, liver
[14] = one treatment 40 mg/kg, 5th day, liver
[15] = one treatment 40 mg/kg, 15th day, liver
[16] = three treatments 40 mg/kg, 5th day
[17] = three treatments 40 mg/kg, 5th day, chop
[18] = three treatments 40 mg/kg, 5th day, ham
[19] = three treatments 40 mg/kg, 15th day
[20] = three treatments 40 mg/kg, 15th day, chop
[21] = three treatments 40 mg/kg, 15th day, ham
[22] = three treatments 40 mg/kg, 5th day, liver
[23] = three treatments 40 mg/kg, 15th day, liver

SMILES: CCC(O)(c1ccccc1)c1cccc(C(F)(F)F)c1 (centres unmarked) [flumecinol, 1-(3-trifluoromethylphenyl)-1-(phenyl)-propan-1-ol]
- induction of the polysubstrate monooxygenase enzyme system [1]: specific inductor of the polysubstrate monooxygenase enzyme system
- residue in muscle tissues and kidney ([2]; 40 mg/kg daily for three subsequent days, 5th day): free of residue on the 5th day
- residue in kidney (so in the source) ([2]; 40 mg/kg daily for three subsequent days, 15th day): free of residue on the 15th day
- residual quinoxaline-2-carboxylic acid in muscle ([2]; 5th day after termination of Carbadox, one or three treatments): no residual quinoxaline-2-carboxylic acid could be detected
- residual Carbadox in muscle vs. control ([2]; Group II, one dose, 24 hours after treatment): significantly lower than in the control animals slaughtered at the same time
- residue in the kidney ([2]; addition in three subsequent days, kidney, 5th and 15th day): no residue was detected either on the 5th or on the 15th day
- quinoxaline-2-carboxylic acid elimination from the muscle tissue ([2]; flumecinol treatment, muscle): significant acceleration of quinoxaline-2-carboxylic acid elimination from the muscle tissue
- quinoxaline-2-carboxylic acid content of the kidney [2, 4]: 30.67 µg/kg
- quinoxaline-2-carboxylic acid content of the liver [2, 4]: 64.67 µg/kg
- quinoxaline-2-carboxylic acid content of the muscle tissue [2, 5]: 5.33 µg/kg
- quinoxaline-2-carboxylic acid content of the muscle tissue [2, 6]: 1.33 µg/kg
- quinoxaline-2-carboxylic acid content of the muscle tissue ([2]; one treatment 40 mg/kg, 1st day, total): 3.33 µg/kg
- quinoxaline-2-carboxylic acid content of the kidney [2, 7]: 10.00 µg/kg
- quinoxaline-2-carboxylic acid content of the liver [2, 7]: 12.00 µg/kg
- quinoxaline-2-carboxylic acid content of the muscle tissue [2, 8]: .0.
- quinoxaline-2-carboxylic acid content of the muscle tissue [2, 9]: .0.
- quinoxaline-2-carboxylic acid content of the muscle tissue ([2]; one treatment 40 mg/kg, 5th day, total): .0.
- quinoxaline-2-carboxylic acid content of the kidney [2, 10]: .0.
- quinoxaline-2-carboxylic acid content of the liver [2, 10]: 7.33 µg/kg
- quinoxaline-2-carboxylic acid content of the muscle tissue [2, 11]: .0.
- quinoxaline-2-carboxylic acid content of the muscle tissue [2, 12]: .0.
- quinoxaline-2-carboxylic acid content of the muscle tissue ([2]; one treatment 40 mg/kg, 15th day, total): .0.
- amount of quinoxaline-2-carboxylic acid [2, 5]: 4 µg/kg and 6 µg/kg
- amount of quinoxaline-2-carboxylic acid [2, 6]: 4 µg/kg
- amount of quinoxaline-2-carboxylic acid ([2]; one treatment 40 mg/kg, 1st day, ham, symbol): .0.
- amount of quinoxaline-2-carboxylic acid ([2]; one treatment 40 mg/kg, 1st day, kidney): 38 µg/kg and 30 µg/kg and 24 µg/kg
- amount of quinoxaline-2-carboxylic acid [2, 13]: 58 µg/kg and 64 µg/kg and 72 µg/kg
- amount of quinoxaline-2-carboxylic acid [2, 8]: .0.
- amount of quinoxaline-2-carboxylic acid [2, 9]: .0.
- amount of quinoxaline-2-carboxylic acid ([2]; one treatment 40 mg/kg, 5th day, kidney): 10 µg/kg and 8 µg/kg and 12 µg/kg
- amount of quinoxaline-2-carboxylic acid [2, 14]: 10 µg/kg and 12 µg/kg and 14 µg/kg
- amount of quinoxaline-2-carboxylic acid [2, 11]: .0.
- amount of quinoxaline-2-carboxylic acid [2, 12]: .0.
- amount of quinoxaline-2-carboxylic acid ([2]; one treatment 40 mg/kg, 15th day, kidney): .0.
- amount of quinoxaline-2-carboxylic acid [2, 15]: 8 µg/kg and 6 µg/kg
- metabolite residue in liver ([2]; single 40 mg/kg dose, liver, 15th day, 40 mg/kg): can be detected even on the 15th day; also recorded: could be still detected on the 15th day
- amount of quinoxaline-2-carboxylic acid in liver, decrease ([2]; single 40 mg/kg dose, liver, each measuring point): significant decrease in the amount of quinoxaline-2-carboxylic acid at each measuring point
- residue in the kidney vs. control ([2]; single dose, kidney, 1st and 5th days): essentially identical with the values obtained in the control group
- residue in the kidney ([2]; single dose, kidney, 15th day): no reside can be detected
- metabolite residue in liver, time of detection ([2]; three subsequent treatments, liver): a metabolite residue can be identified on the 5th day only
- metabolite residue in liver vs. control and single dose ([2]; three subsequent treatments, liver, 5th day): substantially lower amount than in the control animals or in the group treated with a single dose of flumecinol
- quinoxaline-2-carboxylic acid content of the kidney [2, 16]: .0.
- quinoxaline-2-carboxylic acid content of the liver [2, 16]: 6.00 µg/kg
- quinoxaline-2-carboxylic acid content of the muscle tissue [2, 17]: .0.
- quinoxaline-2-carboxylic acid content of the muscle tissue [2, 18]: .0.
- quinoxaline-2-carboxylic acid content of the muscle tissue ([2]; three treatments 40 mg/kg, 5th day, total): .0.
- quinoxaline-2-carboxylic acid content of the kidney [2, 19]: .0.
- quinoxaline-2-carboxylic acid content of the liver [2, 19]: .0.
- quinoxaline-2-carboxylic acid content of the muscle tissue [2, 20]: .0.
- quinoxaline-2-carboxylic acid content of the muscle tissue [2, 21]: .0.
- quinoxaline-2-carboxylic acid content of the muscle tissue ([2]; three treatments 40 mg/kg, 15th day, total): .0.
- amount of quinoxaline-2-carboxylic acid [2, 17]: .0.
- amount of quinoxaline-2-carboxylic acid [2, 18]: .0.
- amount of quinoxaline-2-carboxylic acid ([2]; three treatments 40 mg/kg, 5th day, kidney): .0.
- amount of quinoxaline-2-carboxylic acid [2, 22]: 4 µg/kg and 6 µg/kg and 8 µg/kg
- amount of quinoxaline-2-carboxylic acid [2, 20]: .0.
- amount of quinoxaline-2-carboxylic acid [2, 21]: .0.
- amount of quinoxaline-2-carboxylic acid ([2]; three treatments 40 mg/kg, 15th day, kidney): .0.
- amount of quinoxaline-2-carboxylic acid [2, 23]: .0.
- unpleasant odor released in the tissues by Carbadox administration ([3]; flumecinol treatment): eliminates the unpleasant odor
- visual observation / organoleptic (odor) score [3, 5]: 1
- visual observation / organoleptic (odor) score [3, 6]: 1
- visual observation / organoleptic (odor) score [3, 13]: 3
- visual observation / organoleptic (odor) score [3, 8]: 1
- visual observation / organoleptic (odor) score [3, 9]: 1
- visual observation / organoleptic (odor) score [3, 14]: 2
- visual observation / organoleptic (odor) score [3, 11]: 1
- visual observation / organoleptic (odor) score [3, 12]: 1
- visual observation / organoleptic (odor) score [3, 15]: 1
- elimination of flumecinol from the tissue of pigs ([3]; pigs): rapidly eliminated from the tissue of pigs
- undesired effects detected organoleptically ([3]; pigs): no undesired effects which could be detected organoleptically
- visual observation / organoleptic (odor) score [3, 17]: 1
- visual observation / organoleptic (odor) score [3, 18]: 1
- visual observation / organoleptic (odor) score [3, 22]: 1
- visual observation / organoleptic (odor) score [3, 20]: 1
- visual observation / organoleptic (odor) score [3, 21]: 1
- visual observation / organoleptic (odor) score [3, 23]: 1

From patent US4659712A, “Fodder additive and a process for the preparation” (Richter Gedeon Vegyeszeti Gyar Rt., priority 1984, dated 1987)
